{"source": "patent US5482954A", "about": "“Signal transduction inhibitor triazole and diazole compounds” (priority 1994, dated 1996)", "key": {"5R cells": {"system": "5R cells", "assay": "Cell adhesion to tissue culture plastic", "format": "cell-based, rat", "conditions": "0.03-10 μg/mL, 2 to 48 hr preincubation", "description": "An adhesion assay was developed using tissue culture plastic petri dishes as the substrate. Aliquots of cells treated similarly to those in the cell motility assay were plated in triplicate onto the dishes and incubated for 90 rain at 37° C. Cells which were either poorly adherent or nonadherent were gently washed off with PBS. The remaining cells were stained with Diff Quik™ (from Baxter Scientific Products, McGaw Park. Ill., USA). Adherence was quantitated using laser densitometry and values were calculated as a percentage of the control adherence.\nCells were preincubated with compound 1 (0.03-10 μg/mL) for periods of 2 to 48 hr prior to the adhesion assay. In addition, compound 1 remained present during the assay. […] Maximal inhibition of adhesion was observed following overnight exposure of the cells to compound 1."}, "[1]": {"system": "signal transduction pathways (calcium influx, release of arachidonic acid, generation of inositol phosphates)", "conditions": "cited from earlier work"}, "[2]": {"conditions": "oral, nude mice; cited from earlier work"}, "OVCAR3 cells [3]": {"system": "OVCAR3 cells", "assay": "Colony formation (soft agar)", "format": "cell-based", "conditions": "Homo sapiens, OVCAR-3", "description": "(§1) Colony formation: Compound 1 was evaluated at three concentrations for inhibition of colony formation in both the A2058 and OVCAR3 cell lines. Colony number was determined in triplicate and compared to the vehicle control run on each 24 well plate to provide a percent. Colonies greater than 60 cells were counted at 100× under phase contrast. […] In a second study, selected compounds were evaluated for their effect on density-independent growth of the A2058 cell line in soft agar. Percent inhibition was determined over triplicate experiments involving three log molar concentrations of the test compound."}, "A2058 cells [4]": {"system": "A2058 cells", "assay": "Colony formation (soft agar)", "format": "cell-based, human", "description": "as §1"}, "OVCAR3 cells [5]": {"system": "OVCAR3 cells", "assay": "[3H]thymidine incorporation", "format": "cell-based, human", "conditions": "0-10 μg/mL, 24 hr", "description": "(§2) Proliferation: Two independent methods were used to determine the effect of various compounds on cellular proliferation. The first method utilized [^3 H]thymidine labelling and was performed using A2058, 5R, OVCAR3, and MDA-231 cells. Because the potential effect of compound 1 on thymidine metabolism was unknown, a clonogenic assay was also used. This assay utilized crystal violet nuclear staining.\n(§3) For the thymidine incorporation assay, an initial aliquot of 15,000 cells was plated in 96 well plates. The cells were grown to subconfluence, serum-starved, then fed with serum-containing media to which incremental doses of compound 1 (0-10 μg/mL) were added. After 24 hr, the cells were pulsed with [^3 H]thymidine (0.5 μCi/well) for 2 hr. Trichloroacetic acid was added to precipitate […] [^3 H]thymidine. After removal, ice cold ethanol/diethyl ether was added to precipitate cellular nucleic acids. The residue was solubilized with 0.2M NaOH and [^3 H]thymidine incorporation was determined by liquid scintillation counting. Inhibition of thymidine uptake was calculated as a percent of untreated control cell incorporation of labelled thymidine. As FIG. 4 indicates, de novo DNA synthesis was inhibited in all of the tumor cell lines. Maximal inhibition (80%) was found with the 5R cells."}, "MDA-231 cells": {"system": "MDA-231 cells", "assay": "[3H]thymidine incorporation", "format": "cell-based, human", "conditions": "0-10 μg/mL, 24 hr", "description": "as §2, §3"}, "A2058 cells [6]": {"system": "A2058 cells", "assay": "[3H]thymidine incorporation", "format": "cell-based, human", "conditions": "0-10 μg/mL, 24 hr", "description": "as §2, §3"}, "OVCAR3 cells [7]": {"system": "OVCAR3 cells", "assay": "Oral treatment of intraperitoneal xenografts", "format": "in vivo, nude mice"}, "[8]": {"assay": "Plasma levels in mice (HPLC)", "format": "in vivo, nude mice", "conditions": "oral", "description": "Murine data: A cohort of nude mice were inoculated with A2058 cells and treated with compound 1 at rates of 100 mg/kg/d and 250 mg/kg/qod. These animals were sacrificed humanely at 4 day intervals beginning 18 hr after oral administration of 1. Plasma was collected and frozen until evaluation by HPLC. Plasma samples were precipitated with 10% trichloroacetic acid and extracted with methylene chloride. The organic extract was evaporated to dryness under a stream of nitrogen, reconstituted and chromatographed by HPLC using an isocratic elution of 70% methanol in 0.1 M ammonium acetate (pH 6.5) on a C-18 analytical column. The lower level of sensitivity of this method is 20 ng/mL. The levels of compound 1 in plasma ranged from 1-5 μg/mL in the 100 mg/kg/d cohort and from 5-10 μg/mL in the 250 mg/kg/qod group. These plasma levels are in the range determined to be biologically significant in the inhibition of signal transduction."}, "[9]": {"system": "SKBR human breast cancer cells", "assay": "AMF-stimulated cell motility", "format": "cell-based", "conditions": "overnight exposure; data not shown"}, "[10]": {"system": "T-type voltage gated calcium channels", "conditions": "Hupe, et al.; cited from earlier work"}, "A2058 cells [11]": {"system": "A2058 cells", "assay": "Type IV collagen-stimulated motility", "format": "cell-based, human", "conditions": "data not shown"}, "[12]": {"system": "HT-29 human colon cancer cells", "assay": "Experimental pulmonary metastasis, tumor cells pretreated in vitro", "format": "in vivo, nude mice", "conditions": "cells treated 10 μg/mL, 24 hr; day 28", "description": "Compound 1 was also tested for efficacy against HT-29 human colon cancer cells. HT-29 tumor cells were incubated with compound 1, 10 μg/mL, or DMSO vehicle (0.05%) for 24 hr. After harvesting and washing, one million cells were injected into the lateral tail vein of nude mice. Animals were humanely sacrificed on day 28, the lungs were inflated and fixed, and the number of pulmonary metastases were then counted. Observations on the size of the metastases were also made."}}}
{"smiles": "NC(=O)c1nnn(Cc2cc(Cl)c(C(=O)c3ccc(Cl)cc3)c(Cl)c2)c1N", "note": "[Compound 1]", "values": [{"measurement": "inhibition of cell adhesion", "setting": "5R cells", "value": "dose-dependent inhibition of cell adhesion"}, {"measurement": "inhibition of selected signal transduction pathways", "setting": "[1]", "value": "novel inhibitor of selected signal transduction pathways"}, {"measurement": "toxicity to normal tissues including connective tissue, mucosal surfaces, and bone marrow", "setting": "[2]", "value": "no toxicity to normal tissues"}, {"measurement": "inhibition at 2 µM", "setting": "OVCAR3 cells [3]", "value": "> 70", "unit": "%"}, {"measurement": "COLONY FORMATION (% OF CONTROL)", "setting": "A2058 cells [4]; Table H, soft agar", "value": "11.1 ± 5", "unit": "% OF CONTROL"}, {"measurement": "Colony Formation (% of Control)", "setting": "A2058 cells [4]; Table K", "value": "11.1 ± 5 % of Control"}, {"measurement": "inhibition of colony formation", "setting": "A2058 cells [4]; concentrations as low as 0.2 μM", "value": "significant inhibitory effects"}, {"measurement": "inhibition of de novo DNA synthesis", "setting": "OVCAR3 cells [5]", "value": "inhibited"}, {"measurement": "inhibition of de novo DNA synthesis", "setting": "MDA-231 cells", "value": "inhibited"}, {"measurement": "inhibition of de novo DNA synthesis", "setting": "A2058 cells [6]", "value": "inhibited"}, {"measurement": "time to development of ascites", "setting": "OVCAR3 cells [7]; 100 mg/kg daily oral", "value": "Statistically significant differences"}, {"measurement": "tumor necrosis and pulmonary micrometastases (histology)", "setting": "OVCAR3 cells [7]; 100 mg/kg daily oral", "value": "induced tumor necrosis and inhibition of pulmonary micrometastases"}, {"measurement": "volume of ascites at necropsy", "setting": "OVCAR3 cells [7]; 100 mg/kg daily oral", "value": "Statistically significant differences"}, {"measurement": "progression of OVCAR3 xenografts", "setting": "OVCAR3 cells [7]; FIG. 16B, 100 mg/kg by gavage", "value": "inhibits progression of OVCAR3 xenografts"}, {"measurement": "level in plasma", "setting": "[8]; 100 mg/kg/d", "value": "1000 to 5000", "unit": "ng/mL"}, {"measurement": "level in plasma", "setting": "[8]; 250 mg/kg/qod", "value": "5000 to 10000", "unit": "ng/mL"}, {"measurement": "motile response to AMF", "setting": "[9]", "value": "inhibited"}, {"measurement": "inhibition of T-type voltage gated calcium channels", "setting": "[10]", "value": "inhibit"}, {"measurement": "motility due to type IV collagen stimulation", "setting": "A2058 cells [11]", "value": "inhibited motility"}, {"measurement": "inhibition of pulmonary colonization", "setting": "[12]", "value": 96, "unit": "%"}, {"measurement": "size of pulmonary metastases", "setting": "[12]", "value": "marked reduction in size"}]}
